Laboratory results from paper PMC12683216, “Using High‐Throughput Screening to Identify Crosslinking Peptides That Control Cell‐Mediated Matrix Degradation” (Advanced Healthcare Materials, 2025).
Where a SMILES comes first, the peptide text is derived from it. [ ]: non-standard residue; d: D form. βAla = NCCC(=O)O

Key:
[1] = Soluble peptide degradation, Cells condition (LC-MS); type: in vitro ADME, human; conditions: human
Outline: (§1)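 Pooled synthetic TAILS-derived peptides added to hUVEC or hMSC cultures (Cells) or cell-free conditioned media (Media); MMP-14 inhibitor NSC 405 020 at 10 µM final. Samples taken at 0 and 24 h, acidified, analysed by LC-MS; peak areas normalised to 50 µM βFβA6 internal standard, 24 h/0 h gives fraction remaining.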

MMP-14 [2] = test: as above; type: in vitro ADME, human; conditions: human
Outline: as §1

hMSCs = test: as above; type: in vitro ADME, human; conditions: Figure 3C; individually synthesized soluble peptide, 50 µM, media on hMSCs; 24 h; LC-MS, ratio to βFβA6; N = 6
Outline: as §1

[3] = Soluble peptide degradation, Media condition (cell-conditioned media, LC-MS); type: in vitro ADME, human
Outline: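 Pooled peptide library added to medium conditioned by hUVECs or hMSCs with cells removed. Fraction remaining after 24 h measured by LC-MS (positive-ion ESI). Value is peptide peak area relative to 50 µM non-degradable βFβA6 internal standard.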

MMP-14 [4] = system: T1, MMP-14; test: Peptide degradation with added exogenous recombinant MMP-14 (LC-MS); type: in vitro ADME; conditions: human, cells or culture medium
T1 construct: purchased antibodies.com
Experimental: To verify that MMP‐14 can degrade the KLVAD‐LM and PanMMP peptides, recombinant MMP‐14 was added to the different peptides, both in PBS and in the Cell and Media culture conditions (Figure 7 ). Peptides were incubated under three conditions: in fresh cell culture media (“Blank”), in media with cells present (“Cells”), and in cell‐conditioned media (“Media”). This was done for both hMSCs and hUVECs, and was also done with and without the addition of exogenous MMP.
The extent of peptide degradation was quantified for samples both with and without the addition of exogenous MMP‐14. […] Error bars indicate ± standard deviation, N = 3 with technical triplicates.
hUVECs (75000 per well) or hMSCs (36000 per well) were seeded into a 48 well plate, and 500 µL media was added to the wells. […] The peptide libraries were dissolved at a stock solution of 10 mM total peptide content. For libraries containing 38 peptides, 95 µL of the stock solution was added to each well; for libraries with 19 peptides, 47.5 µL was added to each well, and media was taken at 0 and 24 h. Add 4 µL of acetic acid to all collected media in the LC‐MS plates and store them in a −80 °C freezer to prevent further proteolytic degradation. From each sample, 10 µL of crude solution was introduced by the LC‐MS through a Thermo Scientific Vanquish LC System (Thermo Fisher Scientific), which outputted to a Thermo Scientific LTQ XL Linear Ion Trap Mass Spectrometer (Thermo Fisher Scientific). The sampled mixture was trapped on a column (ProntoSIL C18 AQ, 120 Å, 3 µm, 2.0 x 50 mm HPLC Column, PN 0502F184PS030, MAC‐MOD Analytical Inc.). The samples were loaded onto the column with a solvent containing acetonitrile/water, 5:95 (v/v) containing 1% acetic acid at a flow rate of 300 µL min^−1 and held for 1 min. The sample was then eluted from the column with a linear gradient of 5–40% Solvent B (1% acetic acid in acetonitrile) at the same flow rate for 5 min. This was followed by a 1 min ramp up to 100% Solvent B, where it was re‐equilibrated with Solvent A (1% acetic acid) to 5% solvent B over the course of 1 min and held there for 2 min. The column temperature was kept at a constant 29 °C, and the mass spectrometer was operated in positive ion mode. Using a Heated ESI, the Source Voltage was set to 4.1 kV, and the capillary temperature was 350 °C. For non‐library degradation studies, 2.5 µL of 10 mM peptide stock solution for each peptide was added.
To assess the activity of the conditioned media, the media were divided into two equal portions. One portion was used for a standard degradation study, while the other was cultured for an additional 24 h before the PanMMP and KLVADLMASAE were added. After 24 h of incubation, the media were collected for further analysis. To assess the impact of recombinant MMP‐14 on PanMMP and KLVADLMASAE, recombinant MMP‐14 (antibodies.com) was dissolved in the media at a concentration of 0.5 nM. The remaining steps followed the standard degradation study protocol.
For all degradation studies using soluble peptides, a non‐proteolytically degradable NH2‐βFβAβAβAβAβAβA‐amide (βFβA6) peptide, where βF is β‐phenylalanine and βA is β‐alanine, was added at a 50 µM concentration and used as an internal standard. Peptide degradation ratios were measured by LC‐MS and analyzed by Xcalibur. The relative concentrations of the peptide were calculated by the ratio of the peak area of the peptide and the peak area of βFβA6.

remaining at 24 h ([1]; hMSCs in culture with fresh media (Cells condition), Figure 3B heatmap, split-and-pool libraries KLVADX1X2ASAE (19 or 38 peptides per library) in media on hMSCs, 24 h, LC-MS, ratio to βFβA6, N = 2, read-out: Fraction of peptide remaining after 24 hours: hMSC Cells) [%]	remaining at 24 h ([1]; hUVECs in culture with fresh media (Cells condition), Figure 3B heatmap, split-and-pool libraries KLVADX1X2ASAE in media on hUVECs, 24 h, LC-MS, ratio to βFβA6, N = 2, read-out: Fraction of peptide remaining after 24 hours: hUVEC Cells) [%]	remaining at 24 h, 50 µM ([1]; hUVECs in culture with fresh media (Cells condition), Figure 3C, individually synthesized soluble peptide, 50 µM, media on hUVECs, 24 h, LC-MS, ratio to βFβA6, N = 6, read-out: Fraction of peptide remaining after 24 hours: hUVEC Cells) [%]	remaining at 24 h, 50 µM (MMP-14 [2]; with NSC 405 020 (MMP-14 inhibitor), Figure 3C, 50 µM peptide, media on hMSCs with MMP-14 inhibitor NSC 405 020 10 µM, 24 h, LC-MS, N = 6, read-out: Fraction of peptide remaining after 24 hours: hMSC +Inhibitor) [%]	remaining at 24 h, 50 µM (MMP-14 [2]; with NSC 405 020 (MMP-14 inhibitor), Figure 3C, 50 µM peptide, media on hUVECs with MMP-14 inhibitor NSC 405 020 10 µM, 24 h, LC-MS, N = 6, read-out: Fraction of peptide remaining after 24 hours: hUVEC +Inhibitor) [%]	Fraction of peptide remaining after 24 hours: hMSC Cells (hMSCs)	Fraction of peptide remaining after 24 hours: hUVEC Media ([3]; Figure 3C, individually synthesized soluble peptide, 50 µM, hUVEC-conditioned media without cells, 24 h, LC-MS, ratio to βFβA6, N = 6)	remaining at 24 h ([3]; human, hUVEC-conditioned media without cells (Media condition), Figure 3B heatmap, split-and-pool libraries KLVADX1X2ASAE in hUVEC-conditioned media without cells, 24 h, LC-MS, ratio to βFβA6, N = 2, read-out: Fraction of peptide remaining after 24 hours: hUVEC Media) [%]	remaining at 24 h ([1]; cells or culture medium) [%]	remaining at 24 h ([1]; cells or culture medium, Fraction of peptide remaining after 24 hours: hMSC Cells) [%]	remaining at 24 h, 50 µM (MMP-14 [2]; cells or culture medium) [%]	remaining at 24 h, 50 µM (MMP-14 [2]; cells or culture medium, Fraction of peptide remaining after 24 hours: hMSC +Inhibitor) [%]	degraded across all Media conditions [3]	remaining at 24 h, 50 µM ([3]; human, cells or culture medium) [%]	remaining at 24 h, 50 µM (MMP-14 [4]; peptide remaining in hMSC conditioned media with added MMP‐14) [%]	remaining at 24 h, 50 µM (MMP-14 [4]; peptide remaining in hUVEC conditioned media with added MMP‐14) [%]	Structure (SMILES)
56	94	88	89	100	0.52	1.11	118	–	–	–	–	–	–	–	–	CC(=O)NCCC(=O)N[C@@H](CCCCN)C(=O)N[C@@H](CC(C)C)C(=O)N[C@H](C(=O)N[C@@H](C)C(=O)N[C@@H](CC(=O)O)C(=O)N1CCC[C@H]1C(=O)N[C@@H](Cc1ccc(O)cc1)C(=O)N[C@@H](C)C(=O)N[C@@H](CO)C(=O)N[C@@H](C)C(=O)N[C@@H](CCC(=O)O)C(=O)NCCC(N)=O)C(C)C [KLVAD-PY] (Ac-[βAla]KLVADPYASAE[βAla]-NH2)
–	–	–	–	–	–	–	–	87	39	100	82	less than 10%	93	76	69	CSCC[C@H](NC(=O)[C@H](CC(C)C)NC(=O)[C@H](CC(=O)O)NC(=O)[C@H](C)NC(=O)[C@@H](NC(=O)[C@H](CC(C)C)NC(=O)[C@H](CCCCN)NC(=O)CCNC(C)=O)C(C)C)C(=O)N[C@@H](C)C(=O)N[C@@H](CO)C(=O)N[C@@H](C)C(=O)N[C@@H](CCC(=O)O)C(=O)NCCC(N)=O [KLVAD-LM] (Ac-[βAla]KLVADLMASAE[βAla]-NH2)
